Test results from ChEMBL document CHEMBL6182927, “Heparan Sulfate-Based Neoproteoglycan for Targeted Lysosomal Degradation of Amyloid-β” (J Med Chem, 2025).
The source made the active and inactive calls. The calls are words filed in the database; no cut-off is given here.

Experiments:
[1] = molecular target: T1, Amyloid-beta precursor protein (Homo sapiens, UniProt P05067); experiment: Binding affinity to amyloid beta (1 to 42) (unknown origin) assessed as dissociation constant by SPR analysis
[2] = molecular target: T1, Amyloid-beta precursor protein; experiment: Binding affinity to amyloid beta (1 to 42) (unknown origin) assessed as binding constant K(off) by SPR analysis
[3] = molecular target: T1, Amyloid-beta precursor protein; experiment: Binding affinity to amyloid beta (1 to 42) (unknown origin) assessed as binding constant K(on) by SPR analysis
MDA-MB-468 [4] = experiment: Induction of amyloid beta (1 to 42) degradation in lysosome of human MDA-MB-468 cells assessed as decrease in fluorescence signal at 1 uM incubated for 48 to 72 hrs by FITC based flow cytometry analysis; type: subcellular; conditions: time 48-72 hrs
MDA-MB-468 [5] = experiment: Protection against amyloid beta-induced cytotoxicity in human MDA-MB-468 cells at 0.5 uM by MTT assay; type: functional, cell-based

T1 sequence (P05067 whole entry): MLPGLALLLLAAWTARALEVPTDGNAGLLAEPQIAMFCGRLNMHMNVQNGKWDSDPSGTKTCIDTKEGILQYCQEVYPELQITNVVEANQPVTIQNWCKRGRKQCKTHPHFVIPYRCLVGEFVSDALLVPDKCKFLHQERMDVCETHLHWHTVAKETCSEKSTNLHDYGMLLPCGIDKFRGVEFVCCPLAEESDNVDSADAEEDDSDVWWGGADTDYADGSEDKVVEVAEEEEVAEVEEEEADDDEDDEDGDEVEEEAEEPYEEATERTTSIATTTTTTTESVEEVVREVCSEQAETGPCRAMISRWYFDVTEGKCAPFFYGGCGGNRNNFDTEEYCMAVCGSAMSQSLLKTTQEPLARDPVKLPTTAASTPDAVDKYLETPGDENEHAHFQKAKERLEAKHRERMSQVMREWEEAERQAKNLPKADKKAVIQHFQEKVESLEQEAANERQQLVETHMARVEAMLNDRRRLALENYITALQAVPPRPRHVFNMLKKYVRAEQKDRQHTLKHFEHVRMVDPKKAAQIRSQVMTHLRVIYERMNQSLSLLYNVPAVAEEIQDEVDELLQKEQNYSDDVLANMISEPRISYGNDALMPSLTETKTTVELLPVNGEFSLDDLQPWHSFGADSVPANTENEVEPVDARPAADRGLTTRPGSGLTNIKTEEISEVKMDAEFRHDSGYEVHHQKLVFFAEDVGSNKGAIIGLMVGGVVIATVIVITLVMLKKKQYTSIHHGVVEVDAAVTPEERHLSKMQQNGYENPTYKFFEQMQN

SMILES | Kd [1] | K [2] | K [3] | Activity (MDA-MB-468 [4]) | Activity (MDA-MB-468 [5])
NCCCO[C@@H]1O[C@@H](C(=O)O)[C@@H](O[C@H]2O[C@H](COS(=O)(=O)O)[C@@H](O[C@@H]3O[C@@H](C(=O)O)[C@@H](O[C@H]4O[C@H](COS(=O)(=O)O)[C@@H](O[C@@H]5O[C@@H](C(=O)O)[C@@H](O[C@H]6O[C@H](COS(=O)(=O)O)[C@@H](O)[C@H](O)[C@H]6NS(=O)(=O)O)[C@H](O)[C@H]5OS(=O)(=O)O)[C@H](O)[C@H]4NS(=O)(=O)O)[C@H](O)[C@H]3OS(=O)(=O)O)[C@H](O)[C@H]2NS(=O)(=O)O)[C@H](O)[C@H]1OS(=O)(=O)O | 90.3 nM | 2.23 10^-2/s | 2.47 10^5/Ms | – | –
NCCOCCO[C@@H]1O[C@@H](COS(=O)(=O)O)[C@@H](O[C@@H]2O[C@@H](COS(=O)(=O)O)[C@@H](O[C@@H]3O[C@@H](COS(=O)(=O)O)[C@@H](O[C@@H]4O[C@@H](COS(=O)(=O)O)[C@@H](OS(=O)(=O)O)[C@H](O)[C@H]4OS(=O)(=O)O)[C@H](O)[C@H]3OS(=O)(=O)O)[C@H](O)[C@H]2OS(=O)(=O)O)[C@H](O)[C@H]1OS(=O)(=O)O | 90.2 nM | 2.21 10^-2/s | 2.45 10^5/Ms | – | –
CC(C)CCC[C@@H](C)[C@H]1CC[C@H]2[C@@H]3CC=C4C[C@@H](OCCC(=O)NCCOCCOCCNC(=O)CCC(=O)N5Cc6ccccc6-c6c(nnn6CCC[C@H](NC(=O)[C@H](CCCCNC(=O)CCn6nnc7c6-c6ccccc6CN(C(=O)CCC(=O)NCCCO[C@@H]6O[C@@H](C(=O)O)[C@@H](O[C@H]8O[C@H](COS(=O)(=O)O)[C@@H](O[C@@H]9O[C@@H](C(=O)O)[C@@H](O[C@H]%10O[C@H](COS(=O)(=O)O)[C@@H](O[C@@H]%11O[C@@H](C(=O)O)[C@@H](O[C@H]%12O[C@H](COS(=O)(=O)O)[C@@H](O)[C@H](O)[C@H]%12NS(=O)(=O)O)[C@H](O)[C@H]%11OS(=O)(=O)O)[C@H](O)[C@H]%10NS(=O)(=O)O)[C@H](O)[C@H]9OS(=O)(=O)O)[C@H](O)[C@H]8NS(=O)(=O)O)[C@H](O)[C@H]6OS(=O)(=O)O)c6ccccc6-7)NC(=O)[C@H](CCCCNC(=O)CCn6nnc7c6-c6ccccc6CN(C(=O)CCC(=O)NCCCO[C@@H]6O[C@@H](C(=O)O)[C@@H](O[C@H]8O[C@H](COS(=O)(=O)O)[C@@H](O[C@@H]9O[C@@H](C(=O)O)[C@@H](O[C@H]%10O[C@H](COS(=O)(=O)O)[C@@H](O[C@@H]%11O[C@@H](C(=O)O)[C@@H](O[C@H]%12O[C@H](COS(=O)(=O)O)[C@@H](O)[C@H](O)[C@H]%12NS(=O)(=O)O)[C@H](O)[C@H]%11OS(=O)(=O)O)[C@H](O)[C@H]%10NS(=O)(=O)O)[C@H](O)[C@H]9OS(=O)(=O)O)[C@H](O)[C@H]8NS(=O)(=O)O)[C@H](O)[C@H]6OS(=O)(=O)O)c6ccccc6-7)NC(=O)[C@H](CCCCNC(=O)CCn6nnc7c6-c6ccccc6CN(C(=O)CCC(=O)NCCCO[C@@H]6O[C@@H](C(=O)O)[C@@H](O[C@H]8O[C@H](COS(=O)(=O)O)[C@@H](O[C@@H]9O[C@@H](C(=O)O)[C@@H](O[C@H]%10O[C@H](COS(=O)(=O)O)[C@@H](O[C@@H]%11O[C@@H](C(=O)O)[C@@H](O[C@H]%12O[C@H](COS(=O)(=O)O)[C@@H](O)[C@H](O)[C@H]%12NS(=O)(=O)O)[C@H](O)[C@H]%11OS(=O)(=O)O)[C@H](O)[C@H]%10NS(=O)(=O)O)[C@H](O)[C@H]9OS(=O)(=O)O)[C@H](O)[C@H]8NS(=O)(=O)O)[C@H](O)[C@H]6OS(=O)(=O)O)c6ccccc6-7)NC(=O)[C@H](CCCCNC(=O)CCn6nnc7c6-c6ccccc6CN(C(=O)CCC(=O)NCCCO[C@@H]6O[C@@H](C(=O)O)[C@@H](O[C@H]8O[C@H](COS(=O)(=O)O)[C@@H](O[C@@H]9O[C@@H](C(=O)O)[C@@H](O[C@H]%10O[C@H](COS(=O)(=O)O)[C@@H](O[C@@H]%11O[C@@H](C(=O)O)[C@@H](O[C@H]%12O[C@H](COS(=O)(=O)O)[C@@H](O)[C@H](O)[C@H]%12NS(=O)(=O)O)[C@H](O)[C@H]%11OS(=O)(=O)O)[C@H](O)[C@H]%10NS(=O)(=O)O)[C@H](O)[C@H]9OS(=O)(=O)O)[C@H](O)[C@H]8NS(=O)(=O)O)[C@H](O)[C@H]6OS(=O)(=O)O)c6ccccc6-7)NC(=O)[C@H](CCCCNC(=O)CCn6nnc7c6-c6ccccc6CN(C(=O)CCC(=O)NCCCO[C@@H]6O[C@@H](C(=O)O)[C@@H](O[C@H]8O[C@H](COS(=O)(=O)O)[C@@H](O[C@@H]9O[C@@H](C(=O)O)[C@@H](O[C@H]%10O[C@H](COS(=O)(=O)O)[C@@H](O[C@@H]%11O[C@@H](C(=O)O)[C@@H](O[C@H]%12O[C@H](COS(=O)(=O)O)[C@@H](O)[C@H](O)[C@H]%12NS(=O)(=O)O)[C@H](O)[C@H]%11OS(=O)(=O)O)[C@H](O)[C@H]%10NS(=O)(=O)O)[C@H](O)[C@H]9OS(=O)(=O)O)[C@H](O)[C@H]8NS(=O)(=O)O)[C@H](O)[C@H]6OS(=O)(=O)O)c6ccccc6-7)NC(=O)[C@H](C)NC(=O)CCCCC[N+]6=C(/C=C/C=C/C=C7\N(C)c8ccccc8C7(C)C)C(C)(C)c7ccccc76)C(N)=O)-c6ccccc65)CC[C@]4(C)[C@H]3CC[C@]12C | – | – | – | Active | Active
